Measurements: US5518988A, “Method of counteracting an ethylene response in plants” (North Carolina State University, priority 1994, dated 1996)

Tests used:
[1] = test system: carnations; assay: Stopping the senescent process (petal in-rolling) of carnations due to exogenous and endogenous ethylene; format: in vivo, carnation (Dianthus caryophyllus)
Procedure: Flowers in a pre-senescent stage were treated with 5 nl/l of 1-methylcyclopropene and the senescent process was observed.
The carnations need to have an exogenous ethylene exposure at least for 6 hours to have a visible sign of senescence. Treatment with 3 nl/l of 1-methylcyclopropene is enough to stop that process. […] 1-methylcyclopropene seems to reduce and prevent the autocatalytic production of ethylene.
The ability of 1-methylcyclopropene to stop the senescence process was observed by adding ethylene over 6 hours. […] Thereafter 1-methylcyclopropene was added. The process of senescence was stopped by the binding of 1-methylcyclopropene on the ethylene receptor and giving a molecular response.

[2] = molecular target: Bananas; assay: Banana ripening (chlorophyll disappearance); format: in vivo, bananas (Musa sapientum)
Procedure: Bananas were individually placed in a 3 l jar. 1-Methylcyclopropene was injected into the jar at a determined concentration. The plant material was then aerated and 1 ml/l of ethylene was added for 12 hours. Controls were held in jars without chemical treatment. Chlorophyll measurement was made as previously described in Sisler and Wood, 1988). The experiment was done 7 days after 1-methylcyclopropene treatment.

[3] = test system: carnations; assay: Protection of in vivo cut carnations against exogenous ethylene (pre-treatment with compound); set-up: species or system carnation (Dianthus caryophyllus)
Procedure: The treatment of carnations with ethylene hastens the process of senescence, producing a petal in-rolling phenomena (Halevy and Mayak, 1981). Carnations at stage II, with low ethylene production and no visible signs of senescence (Woodson, 1987) were treated with 1-methylcyclopropeneat different concentration for 6 hours before adding […] of ethylene for 1 hour.
1-Methylcyclopropene was added for various times before the application of exogenous ethylene. […] Treatment with about 250 to 300 nl/l of 1-methylcyclopropene for five minutes was enough to protect the flowers. Treated for 24 hours, with 0.5 nl/l protected against 1 ml/l of ethylene.
Flowers were treated with 5 nl/l of product during 6 hours, then, stored for 10 days at room temperature. One ml/l of ethylene was then added over 18 hours. Ethylene had no effect on the treated carnations 10 days after the 1-methylcyclopropene treatment (data not shown). The binding of 1-methylcyclopropene on carnations seems to be irreversible.
Cut carnations at stage I and stage III were treated with 1-methylcyclopropene. For young carnations, the concentration of 1-methylcyclopropene giving a protective effect was about 1.25 and 2.5 nl/l. For these, the protection against ethylene was total. For old carnations, rates between 2.5 and 5 nl/l of 1-methylcyclopropene were sufficient to give a response, but total protection was not achieved. Total protection of older carnations was only achieved with 10 nl/l of 1-methylcyclopropene (data not shown).

[4] = test system: tomatoes; assay: Tomato ripening after ethylene treatment; format: in vivo, tomatoes (Lycopersicon esculentum); details: applied for 12 hours before the ethylene treatment
Procedure: Tomato seeds were washed with NaOCl (10%) and rinsed with water. The seeds were placed on wetted filter paper with 10 mM sodium phosphate buffer at pH 5.8. The germination was done in the dark. When the seedlings were about 1 mm height, 30 seeds by sample were placed on wet filter paper in a 0.5 l jar. 1-Methylcyclopropene was added over 24 hours before adding 10 μl/l ethylene for 5 days.
When 1-methylcyclopropene was applied for 12 hours before the ethylene treatment, only 10 nl/l of compound was enough to preserve tomatoes.

[5] = test system: carnations; assay: Ethylene production of carnation flowers; format: in vivo, carnation (Dianthus caryophyllus); details: compound applied at the ethylene climacteric; thereafter ethylene production measured
Procedure: Ethylene production was followed from the beginning of the ethylene climacteric production. […] 1- Methylcyclopropene was applied. Thereafter ethylene production was measured.

[6] = test system: ethylene receptor; assay: 14C-ethylene binding to carnation petals; set-up: species or system carnation (Dianthus caryophyllus); details: flowers treated with 5 nl/l, stored 4 days at room temperature at 4° C. before binding experiment (FIG. 4)
Procedure: Triplicate samples of 3 g cut carnations' petals were placed in a 2.51 desiccator containing ^14 C-ethylene-mercuric perchlorate complex (110 mCi/mM) in a 25 ml Erlenmeyer flask. Then, an excess of […] lithium chloride was added to the ethylene-mercuric perchlorate complex to release the gaseous ethylene. The mixture was stirred for 6 minutes. To determine the amount of binding, 3 ml of unlabelled ethylene was added in one desiccator. After 2 hours of ethylene exposure, the desiccators were opened and the samples were aerated for 4 minutes. Each sample was then placed in a 250 ml jar. 0.2 Ml of mercuric perchlorate on a 0.5 cm^2 piece of fiber-glass filter in a scintillation vial was then added. After 18 hours, the scintillation vials were removed, scintillation fluid added and the radioactivity counted for each sample.
To determine if the 1-methylcyclopropene acted on the ethylene receptor, flowers were treated with 5 nl/l of 1-methylcyclopropene and stored for 4 days at room temperature at 4° C. before the ethylene binding experiment. Carnation petals preincubated with 1-methylcyclopropene and control petals which had not been incubated with 1-methylcyclopropene were then incubated in the presence of ^14 C-ethylene. One sample representing the control was incubated with a saturating concentration of unlabelled ethylene in the presence of ^14 C-ethylene. […]

[7] = test system: ethylene receptor; assay: Diffusion of 3H 1-methylcyclopropene from carnation petals; format: binding, carnation (Dianthus caryophyllus)
Procedure: In order to label the ethylene receptor, 1-methylcyclopropene was labelled with tritium and the specific activity obtained was 60 mCi/mM. An eventual diffusion of the compound was studied on carnations. The flowers were treated with 1-methylcyclopropene, and with large amounts of ethylene. Control flowers were treated with 1-methylcyclopropene alone. The diffusion was followed for 7 days. […] When the experiment was made at 4° C., the diffusion was nonexistent.

Row | Structure (SMILES) | senescent process of flowers treated in a pre-senescent stage ([1]; 5 nl/l, observed 15 days later, untreated control in-rolled one day later) | concentration enough to stop the senescence process due to exogenous ethylene exposure ([1]; after exogenous ethylene exposure of at least 6 hours) [nl/l] | process of senescence after in-rolling had begun ([1]; ethylene over 6 hours, in-rolling begun, thereafter compound added) | petal in-rolling of carnations treated with ethylene and then compound ([1]; ethylene, then 1-methylcyclopropene) | Ki (chlorophyll measurement) ([2]; 1 ml/l ethylene for 12 hours, measured 7 days after treatment) [nl/l] | Ki for chlorophyll disappearance ([2]; experiments done in the dark) [ul/l] | Ki for chlorophyll disappearance ([2]; experiments done in the light) [ul/l] | time for which ripening was prevented ([2]; treated bananas, fruits turned brown after this period) | effect of ethylene on treated carnations 10 days after treatment ([3]; 5 nl/l for 6 hours, stored 10 days at room temperature, then 1 ml/l ethylene over 18 hours) | minimal concentration preventing the ethylene process, compared with that at the other ethylene levels ([3]; flowers treated with 1 ml/l of ethylene) | concentration to protect the flower against ethylene action, compared with STS, DACP or NBD ([3]; in vivo carnations) | concentration achieving total protection ([3]; old cut carnations (stage III)) [nl/l] | minimal concentration preventing the ethylene process (flowers looked like control without ethylene) ([3]; stage II carnations, 6 hours treatment before 10 or 1000 ml/l ethylene for 1 hour, after 4 days) [nl/l] | concentration needed to protect the flowers against exogenous ethylene ([3]; treated for 24 hours, against 1 ml/l of ethylene) [nl/l] | extent of protection against ethylene ([3]; young cut carnations (stage I), about 1.25 and 2.5 nl/l) | concentration enough to preserve tomatoes [4] [nl/l] | ethylene production, control versus treated flowers (FIG. 3) [5] | specific 14C-ethylene binding [6] | diffusion of the labelled compound from carnations ([7]; experiment made at 4° C.) | diffusion of the labelled compound from carnations ([7]; followed for 7 days, flowers without ethylene treatment)
1 | CC1=CC1 [1-methylcyclopropene] | did not show a senescent process | 3 | stopped | no visible sign of the phenomenon | 0.4 | 40 | 1.2 | about 15 days | no effect | the same | much lower | 10 | 2.5 | 0.5 | total | 10 | considerably lower | totally inhibited |  | 
2 | CC1=CC1 [^3 H 1-methylcyclopropene] |  |  |  |  |  |  |  |  |  |  |  |  |  |  |  |  |  |  | nonexistent | a little diffusion
